≈ marks a conversion by molar mass, not a printed value.
Tests used:
MSSA ATCC25923 [1] = test: MIC with addition of PG, LPS or D-Ala-D-Ala (Example 3); type: cell-based, Staphylococcus aureus; details: for MIC: MSSA (ATCC25923); for change in MIC by the addition of PG: MSSA ATCC25923, PG 30 μg/ml
Method: (§1) Regarding EGCG-C16, whether or not the antibacterial action thereof against MSSA and MRSA is inhibited by the addition of: peptidoglycan (PG) or D-Ala-D-Ala, which are each a cell wall component; or lipopolysaccharide (LPS), which is an outer membrane component, was examined. The MIC measurement was carried out in the manner described in Section (2) of Example 2.
(§2) In Example 3, EGCG-C16 prepared in Example 1 was used as an antibacterial agent. In Comparative Example 3, unsubstituted EGCG was used as an antibacterial agent. […] Antibacterial agent solutions of EGCG-C16 and EGCG were prepared in the same manner as described in Section (2) of Example 1. Antibacterial agent solutions of the antibacterial agents other than EGCG-C16 and EGCG were prepared by dissolving them in PBS.
(§3) As additives, PG (Peptidoglycan Staphylococcus aureus, SIGMA-ALDRICH), D-Ala-D-Ala (SIGMA-ALDRICH), and LPS (Lipopolysaccharide Salmonella, SIGMA-ALDRICH) were provided. Each of the additives was dissolved in PBS, and the resultant solution was used as an additive solution.
(§4) Dilution series of the antibacterial agent solutions were prepared. Each of them was dispensed to a 96-well plate. Further, the additive solution was added thereto and mixed. After that, a bacterial culture solution of MRSA ATCC43300 or MSSA ATCC25923 was added thereto and cultured at 37° C. for 18 hours. In the mixture of the antibacterial agent solution, the additive solution, and the bacterial culture solution, the final concentrations of PG, D-Ala-D-Ala, and LPS were each set to 30 μg/ml. Unless otherwise stated, the minimum inhibitory concentration (MIC) was calculated in the same manner as described in Section (2) of Example 2.

MRSA ATCC43300 [2] = test: as above; type: cell-based, Staphylococcus aureus; details: for MIC: MRSA (ATCC43300); for change in MIC by the addition of PG: MRSA ATCC43300, PG 30 μg/ml
Method: as §1, §2, §3, §4

[3] = tested on: methicillin-resistant Staphylococcus aureus (MRSA) ATCC43300; test: MIC, broth microdilution (Example 1); type: cell-based; details: for MIC: MRSA ATCC43300, MH-broth, 37° C., 18 hours
Method: (§5) Methicillin-susceptible Staphylococcus aureus (MSSA) NCTC8325 and methicillin-resistant Staphylococcus aureus (MRSA) ATCC43300 were used as bacteria. The bacteria of each type were cultured using Mueller-Hinton Broth (MH-broth, Difco) as a medium. Then, the minimum inhibitory concentration (MIC) of each of the EGCG derivatives was measured by a broth microdilution method in accordance with the Clinical and Laboratory Standards Institute (CLSI) guidelines (hereinafter the same).
(§6) First, each of the EGCG derivatives was dissolved in 100% dimethyl sulfoxide (DMSO, Wako Pure Chemical Industries, Ltd.) so that the concentration thereof became 5120 μg/ml. The resultant solution was diluted with DMSO or sterile distilled water so as to prepare two-fold dilution series of antibacterial agent solutions. […] Each of these antibacterial agent solutions was dispensed to wells of a 96-well plate. The concentration of the EGCG derivative in the antibacterial agent solution dispensed to the wells was set to be 10 times as high as the final concentration. On the other hand, the bacteria were cultured in the MH-broth at 37° C. overnight, and the thus-obtained pre-culture solution was diluted with a new MH-broth so that the concentration thereof in the MH-broth became 10^−4 (10^4-fold dilution), thus preparing a bacterial culture solution of about 1×10^5 CFU/ml (CFU: Colony Forming Unit, the number of viable cells). The bacterial culture solution was further added to each well, and the mixture was cultured at 37° C. for 18 hours. The ratio (volume ratio) between the antibacterial agent solution and the bacterial culture solution added to each well was set to 1:9 (the antibacterial agent solution:the bacterial culture solution), and the volume of the mixture of them per well was set to 100 μl in total. The final concentration of the EGCG derivative in the mixture was set to 8 μg/ml to 512 μg/ml, and the number of viable cells in the mixture was set to about 1×10^5 CFU/ml. Then, after the completion of the culture, the MIC was determined. Also, the turbidity (OD600 nm) was measured using a plate reader so as to identify minor differences.
(§7) As Comparative Example 1, the same procedures as in Example 1 were performed, except that unsubstituted EGCG was used as an antibacterial agent instead of the EGCG derivatives of Example 1. Furthermore, as a control, the same procedures as in Example 1 were performed, except that sterile distilled water, 100% DMSO, or 50% DMSO was used instead of the antibacterial agent solutions containing the EGCG derivatives.

[4] = tested on: Methicillin-susceptible Staphylococcus aureus (MSSA) NCTC8325; test: MIC, broth microdilution (Example 1); type: cell-based; details: MH-broth, 37° C., 18 hours
Method: as §5, §6, §7

MSSA ATCC25923 [5] = test: Membrane damaging properties, SYTOX Green fluorescence (Example 4); type: cell-based, Staphylococcus aureus; details: 37° C., 15 minutes, EGCG derivative 4-32, EGCG 8-128, NISIN 1-8 μg/ml, FIG. 3
Method: (§8) As an antibacterial agent, the EGCG-C16 prepared in Example 1 was used in Example 4; EGCG was used in Comparative Example 4; and membrane-damaging peptide NISIN (MP Biomedicals) was used in a reference example. Antibacterial agent solutions of EGCG-C16 and EGCG were prepared by dissolving them in DMSO so as to achieve top concentrations, respectively. An antibacterial agent solution of the other antibacterial agent was prepared by dissolving it in PBS and diluted with PBS as appropriate. The influence of DMSO used for dissolving the antibacterial agents also was considered.
MSSA ATCC25923 and MRSA ATCC43300 were subjected to shaking culture in MH-broths (Difco) until they reached a late stage in the exponential growth phase. The thus-obtained culture solutions were each centrifuged at 7000 rpm for 10 minutes, and bacterial cells that had settled were suspended in PBS. The suspension of the bacterial cells was added to wells of a 384 black plate, and each of the antibacterial agent solutions was further added thereto and mixed. The resultant mixture was incubated at 37° C. for 15 minutes. Subsequently, a dead cell-staining dye (trade name “SYTOX Green”, LONZA) was mixed in each well so that the concentration thereof became 10 μmol/l, and the resultant mixture was incubated at 37° C. for 10 minutes. […] On the other hand, as a control, the fluorescence intensity was measured in the same manner, except that PBS or 10% DMSO was added instead of the antibacterial agent solutions. Then, regarding each of the MSSA and MRSA, the ratio of the fluorescence intensity when each of the agents was added was calculated assuming that the fluorescence intensity obtained in the control (PBS) was 1.

MRSA ATCC43300 [6] = test: as above; type: cell-based, Staphylococcus aureus; details: 37° C., 15 minutes, EGCG derivative 4-32, EGCG 8-128, NISIN 1-8 μg/ml, FIG. 3
Method: as §8
MSSA ATCC25923 and MRSA ATCC43300 were subjected to shaking culture in MH-broths (Difco) until they reached a late stage in the exponential growth phase. The thus-obtained culture solutions were each centrifuged at 7000 rpm for 10 minutes, and bacterial cells that had settled were suspended in PBS. The suspension of the bacterial cells was added to wells of a 384 black plate, and each of the antibacterial agent solutions was further added thereto and mixed. The resultant mixture was incubated at 37° C. for 15 minutes. Subsequently, a dead cell-staining dye (trade name “SYTOX Green”, LONZA) was mixed in each well so that the concentration thereof became 10 μmol/l, and the resultant mixture was incubated at 37° C. for 10 minutes. The final concentrations of the respective antibacterial agents were as follows: 4, 8, 16, and 32 μg/ml for the EGCG derivative; 8, 16, 32, 64, and 128 μg/ml for EGCG; and 1, 2, 4, and 8 μg/ml for NISIN. […] On the other hand, as a control, the fluorescence intensity was measured in the same manner, except that PBS or 10% DMSO was added instead of the antibacterial agent solutions. Then, regarding each of the MSSA and MRSA, the ratio of the fluorescence intensity when each of the agents was added was calculated assuming that the fluorescence intensity obtained in the control (PBS) was 1.

[7] = +D-Ala-D-Ala (30 μg/mL), lower part of Table 9
[8] = +LPS (30 μg/mL), upper part of Table 9
[9] = +PG (30 μg/mL), lower part of Table 9 (PG/D-Ala-D-Ala series)
[10] = MH-broth free of additives, lower part of Table 9 (PG/D-Ala-D-Ala series)
[11] = MH-broth free of additives, upper part of Table 9 (PG/LPS series)
[12] = +PG (30 μg/mL), upper part of Table 9 (PG/LPS series)

Row | Compound | MIC (MSSA ATCC25923 [1]; [7]) [µg/mL] | MIC (MSSA ATCC25923 [1]; [8]) [µg/mL] | MIC (MSSA ATCC25923 [1]; [9]) [µg/mL] | MIC (MSSA ATCC25923 [1]; [10]) [µg/mL] | MIC (MSSA ATCC25923 [1]; [11]) [µg/mL] | MIC (MRSA ATCC43300 [2]; [7]) [µg/mL] | MIC (MRSA ATCC43300 [2]; [8]) [µg/mL] | MIC (MRSA ATCC43300 [2]; [9]) [µg/mL] | MIC (MRSA ATCC43300 [2]; [12]) [µg/mL] | MIC (MRSA ATCC43300 [2]; [10]) [µg/mL] | MIC (MRSA ATCC43300 [2]; [11]) [µg/mL] | other results
1 | CC1(C)S[C@@H]2[C@H](NC(=O)[C@H](N)c3ccccc3)C(=O)N2[C@H]1C(=O)O [ABPC, ampicillin] | 0.25 (≈ 0.715 µM) | 0.25 (≈ 0.715 µM) | 0.25 (≈ 0.715 µM) | 0.25 (≈ 0.715 µM) | 0.25 (≈ 0.715 µM) | 16 (≈ 45.8 µM) | 32 (≈ 91.6 µM) | 8 (≈ 22.9 µM) | 32 (≈ 91.6 µM) | 16 (≈ 45.8 µM) | 32 (≈ 91.6 µM) | –
2 | CN[C@H](CC(C)C)C(=O)N[C@H]1C(=O)N[C@@H](CC(N)=O)C(=O)N[C@H]2C(=O)N[C@H]3C(=O)N[C@H](C(=O)N[C@H](C(=O)O)c4cc(O)cc(O)c4-c4cc3ccc4O)[C@H](O)c3ccc(c(Cl)c3)Oc3cc2cc(c3O[C@@H]2O[C@H](CO)[C@@H](O)[C@H](O)[C@H]2O[C@H]2C[C@](C)(N)[C@H](O)[C@H](C)O2)Oc2ccc(cc2Cl)[C@H]1O [VCM, vancomycin] | 16 (≈ 11 µM) | 2 (≈ 1.38 µM) | 2 (≈ 1.38 µM) | 1 (≈ 0.69 µM) | 2 (≈ 1.38 µM) | 16 (≈ 11 µM) | 2 (≈ 1.38 µM) | 2 (≈ 1.38 µM) | 4 (≈ 2.76 µM) | 1 (≈ 0.69 µM) | 2 (≈ 1.38 µM) | MIC (MSSA ATCC25923 [1]; [12]): 4 µg/mL (≈ 2.76 µM); change in MIC by the addition of PG (MSSA ATCC25923 [1]): doubled; change in MIC by the addition of PG (MRSA ATCC43300 [2]): doubled
3 | EGCG-eicosanoate [EGCG-C20] | – | – | – | – | – | – | – | – | – | – | – | MIC [3]: 128 µg/mL
4 | EGCG-laurate [EGCG-C12] | – | – | – | – | – | – | – | – | – | – | – | MIC [3]: 16 µg/mL; inhibition of propagation (MIC, turbidity OD600 nm) ([3]; MRSA, FIG. 1 and Table 3): remarkable propagation-inhibiting effect; MIC [4]: 8 µg/mL
5 | EGCG-octanonate [EGCG-C8] | – | – | – | – | – | – | – | – | – | – | – | MIC [4]: 8 µg/mL
6 | NISIN [reference compound] | – | – | – | – | – | – | – | – | – | – | – | fluorescence intensity ratio of SYTOX Green (control PBS = 1) (MSSA ATCC25923 [5]): very high fluorescence intensity ratio; fluorescence intensity ratio of SYTOX Green (control PBS = 1) (MRSA ATCC43300 [6]): very high fluorescence intensity ratio
7 | teicoplanin | 32 | 1 | 2 | 1 | 1 | 16 | 1 | 1 | 1 | 0.5 | 0.5 | MIC (MSSA ATCC25923 [1]; [12]): 2 µg/mL; change in MIC by the addition of PG (MSSA ATCC25923 [1]): doubled; change in MIC by the addition of PG (MRSA ATCC43300 [2]): doubled

Source: patent publication US9801850B2, “Antibacterial agent” (OSAKA UNIVERSITY, priority 2009, dated 2017)
